In US20130005811A1, “ANTIMICROBIAL TREATMENT FOR SEEDS AND SPROUTS” (priority 2010, published 2013):
Marks after values point to notes of the source that are not given here.

System: E. coli O157:H7
Test: Inactivation of E. coli O157:H7 on alfalfa seeds inoculated with 10^8 CFU/g
Format: cell-based, Escherichia coli O157:H7
Description: Five isolates of Escherichia coli O157:H7, including strain 932 (human isolate), E009 (beef isolate), E0018 (cattle isolate), E0122 (cattle isolate), E0139 (deer jerky isolate); and five isolates of Salmonella typhimurium DT104, including strain H2662 (cattle isolate), 11942A (cattle isolate), 13068A (cattle isolate), 152N17-1 (dairy isolate) and H3279 (human isolate) were used. Nalidixic acid-resistant (50 μg/ml) E. coli O157:H7 were used to facilitate enumeration. Each E. coli O157:H7 and Salmonella strain was grown in tryptic soy broth (TSB, Beckon Dickinson, Sparks, Md.) at 37° C. for 18 hr. Approximately equal cell numbers of each of the five strains were combined and used as a 5-strain mixture with cell numbers being adjusted by spectrophotometric (Spectronic Instruments, Rochester, N.Y.) determination as described in Zhao et al., (2009) J. Food Prot. 72: 928-936, incorporated herein by reference in its entirety. Bacterial cell numbers were confirmed by plating 0.1 ml of serial dilutions (1:10) in 0.1% peptone on tryptic soy agar (TSA, Beckon Dickinson) and Sorbitol MacConkey agar (SMA, Oxoid, Hampshire, UK) for E. coli O157:H7, and TSA and XLD agar (Beckon Dickinson) for Salmonella and incubating all plates at 37° C. for 24 hr, after which colonies were counted.
Levulinic acid (0.5%) and 0.05% sodium dodecyl sulfate (SDS) obtained from Sigma-Aldrich (St. Louis, Mo.) were tested in combination at 21±2° C. for their antimicrobial activity to E. coli O157:H7 and S. typhimurium on alfalfa seeds as a wash treatment. Calcium hypochlorite (Arch Chemicals, Smyrna, Ga.) at 20,000 μg/ml (ppm) was used as the positive control, and deionized water was used as the negative control.
Before each trial, 25 ml of sterile tap water and 25 g of alfalfa seeds were added to a WHIRL-PAK® bag (Nasco, Fort Atkinson, Wis.) and pummeled in a stomacher blender at 150 rpm for 1 min. Duplicate 0.1 ml portions of the contents were plated on SMA, XLD, and TSA plates to detect E. coli O157:H7 and Salmonella, and enumerate aerobic bacteria counts according to the protocols described below. Only E. coli O157:H7-negative and Salmonella-negative alfalfa seeds were used. Dry seeds (50 g) were individually placed in a sterilized glass beaker (1 L) and 5 ml of a mixture of E. coli O157:H7 or S. typhimurium DT 104 (high inocula at 10^8-10^9 CFU/ml and low inocula at 10^3-10^4 CFU/ml) was inoculated on the surface of the seeds in each glass beaker under a laminar flow hood. A sterile plastic spoon was used to mix for 2 min the seeds with bacterial suspension. The glass beakers were held in a laminar flow hood for 1 hr, 4 hr, 24 hr, 48 hr, and 72 hr with intermittent mixing by plastic spoon before use for chemical treatment.
Inactivation of E. coli O157:H7 and Salmonella on Alfalfa Seeds: Inoculated, dried alfalfa seeds (50 g samples) were placed in a 1000 ml glass beaker containing 200 ml of treatment solution and agitated by a magnetic stir bar at 150 ppm at 21° C. for 0, 1, 2, 5, 10, 20, 30, and 60 min. Following treatment, 25 g of seeds was placed in a stomacher bag containing 25 ml 0.1M phosphate buffer, pH 7.2 (PBS) for levulinic acid plus SDS-treated seeds or neutralizing buffer (50×) for calcium hypochlorite-treated seeds and pummeled for 1 min. at 150 rpm in a stomacher blender (Seward, Ltd., Worthing, England). The suspension was serially (1:10) diluted in 0.1% peptone water and 0.1 ml of each dilution was surface-plated in duplicate onto TSA and Sorbitol MacConkey agar containing 50 μg nalidixic acid/ml (TSA-NA and SMA-NA) for E. coli O157:H7, and on TSA and XLD containing ampicillin (32 μg/ml), tetracycline (16 μg/ml) and streptomycin (64 μg/ml) (TSA+ and XLD+) for S. typhimurium DT 104. All plates were incubated at 37° C. for 48 hr.

## [Ca+2].[O-]Cl.[O-]Cl [20,000 ppm, Ca(OCl)2, pH 11.4, Calcium hypochlorite]
Dried for 4 hr, treated for 0 min (actual time 0 delayed by 20 to 30 seconds)
  E. coli O157:H7 counts on seeds: +^b (below the minimum detection level by direct plating (<0.7 log CFU/ml), but positive by enrichment culture)
Dried for 4 hr, treated for 1 min
  E. coli O157:H7 counts on seeds: + (below the minimum detection level by direct plating (<0.7 log CFU/ml), but positive by enrichment culture)
Dried for 4 hr, treated for 2 min
  E. coli O157:H7 counts on seeds: −^c
Dried for 4 hr, treated for 5 min
  E. coli O157:H7 counts on seeds: + (below the minimum detection level by direct plating (<0.7 log CFU/ml), but positive by enrichment culture)
Dried for 4 hr, treated for 10 min
  E. coli O157:H7 counts on seeds: 1.7 CFU/g
Dried for 4 hr, treated for 20 min
  E. coli O157:H7 counts on seeds: 2.0 CFU/g
Dried for 4 hr, treated for 30 min
  E. coli O157:H7 counts on seeds: 1.7 CFU/g
Dried for 4 hr, treated for 60 min
  E. coli O157:H7 counts on seeds: + (below the minimum detection level by direct plating (<0.7 log CFU/ml), but positive by enrichment culture)
Dried for 24 hr, treated for 0 min
  E. coli O157:H7 counts on seeds: + (below the minimum detection level by direct plating (<0.7 log CFU/ml), but positive by enrichment culture)
Dried for 24 hr, treated for 1 min
  E. coli O157:H7 counts on seeds: −
Dried for 24 hr, treated for 2 min
  E. coli O157:H7 counts on seeds: −
Dried for 24 hr, treated for 5 min
  E. coli O157:H7 counts on seeds: −
Dried for 24 hr, treated for 10 min
  E. coli O157:H7 counts on seeds: + (below the minimum detection level by direct plating (<0.7 log CFU/ml), but positive by enrichment culture)
Dried for 24 hr, treated for 20 min
  E. coli O157:H7 counts on seeds: −
Dried for 24 hr, treated for 30 min
  E. coli O157:H7 counts on seeds: −
Dried for 24 hr, treated for 60 min
  E. coli O157:H7 counts on seeds: + (below the minimum detection level by direct plating (<0.7 log CFU/ml), but positive by enrichment culture)
Dried for 48 hr, treated for 0 min
  E. coli O157:H7 counts on seeds: + (below the minimum detection level by direct plating (<0.7 log CFU/ml), but positive by enrichment culture)
Dried for 48 hr, treated for 1 min
  E. coli O157:H7 counts on seeds: −
Dried for 48 hr, treated for 2 min
  E. coli O157:H7 counts on seeds: + (below the minimum detection level by direct plating (<0.7 log CFU/ml), but positive by enrichment culture)
Dried for 48 hr, treated for 5 min
  E. coli O157:H7 counts on seeds: −
Dried for 48 hr, treated for 10 min
  E. coli O157:H7 counts on seeds: −
Dried for 48 hr, treated for 20 min
  E. coli O157:H7 counts on seeds: −
Dried for 48 hr, treated for 30 min
  E. coli O157:H7 counts on seeds: −
Dried for 48 hr, treated for 60 min
  E. coli O157:H7 counts on seeds: −
Dried for 72 hr, treated for 0 min
  E. coli O157:H7 counts on seeds: + (below the minimum detection level by direct plating (<0.7 log CFU/ml), but positive by enrichment culture)
Dried for 72 hr, treated for 1 min
  E. coli O157:H7 counts on seeds: + (below the minimum detection level by direct plating (<0.7 log CFU/ml), but positive by enrichment culture)
Dried for 72 hr, treated for 2 min
  E. coli O157:H7 counts on seeds: + (below the minimum detection level by direct plating (<0.7 log CFU/ml), but positive by enrichment culture)
Dried for 72 hr, treated for 5 min
  E. coli O157:H7 counts on seeds: −
Dried for 72 hr, treated for 10 min
  E. coli O157:H7 counts on seeds: + (below the minimum detection level by direct plating (<0.7 log CFU/ml), but positive by enrichment culture)
Dried for 72 hr, treated for 20 min
  E. coli O157:H7 counts on seeds: + (below the minimum detection level by direct plating (<0.7 log CFU/ml), but positive by enrichment culture)
Dried for 72 hr, treated for 30 min
  E. coli O157:H7 counts on seeds: −
Dried for 72 hr, treated for 60 min
  E. coli O157:H7 counts on seeds: −
Seeds dried for 4 hr, treated for up to 60 min
  Reduction of E. coli O157:H7 population: greater than 6 log CFU/g
Seeds dried for 24 hr, treated for 5 min
  E. coli O157:H7 detection after treatment: only detectable on seeds by selective enrichment culture
